The values that follow come from patent US6518012B1, “Method for regulating the expression of MHC antigens and CD40 by inhibitors of histone deacetylation” (Health Research, Inc., priority 1999, dated 2003).

Assay [1] concerns HLA-DRα mRNA. Nature of the assay: HLA-DRα mRNA by standard PCR and real-time PCR in human cell lines JAR and SK-N-MC. As to conditions: for fold increase in expression of DR: MC cells, real time PCR, 100 nM TSA 24 hr, NaBu 1 mM 48 hr, IFNγ any concentration or time point; for levels of mRNA for HLA-DRα (DR): SK-N-MC, RT-PCR, 100 nM TSA 24 hours, 1 mM NaBu 48 hours, IFNγ. Type of assay: cell-based.

Assay [2] concerns MHC class II protein on the cell surface. Nature of the assay: Cell surface MHC class II protein by flow cytometry on SK-N-MC. The format is cell-based, human. As to conditions: for expression of MHC class II protein on the cell surface: flow cytometry, 50 nM TSA for 48 hours, IFNγ 100 U/ml same time.
Assay [3] deals with CD40. The assay is described as follows: Cell surface CD40 by flow cytometry on Colon 26 and J558. The format is cell-based, mouse. As to the method: To determine the effect of TSA on cell surface protein expression, the J558 cell line was subjected to flow cytometric analyses as follows. Flow cytometric analyses were conducted by standard methods using cells fixed with 1.0% paraformaldehyde and analyzed on the FACScan (Becton Dickinson). Cell cycle analyses were carried out by flow cytometry with PI staining of genomic DNA. Cells were fixed and permeablized in methanol, treated with RNaseA and analyzed for DNA content by determination of FL3-area on the FACScan. The FL3-area data were analyzed with the ModFit software for determination of the percent cells in each phase of the cell cycle. In some cases, fluorescein isothiocyanate (FITC)-conjugated antibody staining was conducted prior to PI treatment and surface staining was analyzed as a function of cell cycle phase. Apoptosis was analyzed by staining with annexin-V directly conjugated with either FITC or RPE and by sub-G0 analysis of DNA staining. […] Isotype controls were analyzed and, in each case, fell on or below the levels shown for control cells. […] Since all cells were positive for MHC class I expression, the number under the histogram represents -fold change of expression calculated from the mean channel-shift after treatment relative to untreated cells. […]
(A flow cytometer gives signals particle by particle.)

Assay [4] relates to MHC class I. Nature of the assay: Cell surface MHC class I by flow cytometry on Colon 26 and J558. Type of assay: cell-based, mouse. The method, then: To determine the effect of TSA on cell surface protein expression, the J558 cell line was subjected to flow cytometric analyses as follows. Flow cytometric analyses were conducted by standard methods using cells fixed with 1.0% paraformaldehyde and analyzed on the FACScan (Becton Dickinson). Cell cycle analyses were carried out by flow cytometry with PI staining of genomic DNA. Cells were fixed and permeablized in methanol, treated with RNaseA and analyzed for DNA content by determination of FL3-area on the FACScan. The FL3-area data were analyzed with the ModFit software for determination of the percent cells in each phase of the cell cycle. In some cases, fluorescein isothiocyanate (FITC)-conjugated antibody staining was conducted prior to PI treatment and surface staining was analyzed as a function of cell cycle phase. Apoptosis was analyzed by staining with annexin-V directly conjugated with either FITC or RPE and by sub-G0 analysis of DNA staining. Expression levels without treatment are shown as shaded peaks, IFNγ treated cell expression is plotted by a thin line while the level of expression on TSA treated cells is represented by a heavy line. Isotype controls were analyzed and, in each case, fell on or below the levels shown for control cells. […] Since all cells were positive for MHC class I expression, the number under the histogram represents -fold change of expression calculated from the mean channel-shift after treatment relative to untreated cells. […] Of the 13 markers analyzed on J558 cells, only class I, II and CD40 were enhanced, while levels of several non-expressed antigens were not elicited (including CD25, B7 integrin, CD40L, H2K^k and IA^k) while other markers, which were expressed, were not altered (including CD44, CD54, CD80, CD86 and CD119) by TSA treatment. […] The separation of control and IFNγ curves in the CD40, J558 experiment depicted in FIG. 8 represents a mean channel fluorescence difference of only 1.3 and was not seen on independent replicates of the experiment. […]

Assay [5] concerns HLA-DRα mRNA. The assay is described as follows: HLA-DRα mRNA by standard PCR and real-time PCR in human cell lines JAR and SK-N-MC. Type of assay: cell-based. As to conditions: JAR; for fold increase in HLA-DRα (MHC class II) mRNA over the control: real time quantitative RT-PCR, 100 nM TSA, IFNγ 100 U/ml or combination for 12 hours, sodium butyrate (FIG. 2). The method, then: To determine the effect of DAIs on HLA-DRα mRNA, cytoplasmic RNA was isolated from untreated and treated human trophoblast cell line JAR using standard techniques (RNeasy System from Qiagen). Standard PCR was performed using primers for DR and CIITA (Murphy et al., 1998, Reprod Dev., Chin et al., 1994, Immunity 1:687-697). Other primers used included human and mouse GAPDH (Clontech) and forward primer 5′-[…]-3′ (SEQ ID NO:25) and reverse primer 5′-[…]-3′ (SEQ ID NO:26) for mouse CIITA. PCR products were amplified with GOLD Taq for 10 min at 95° C., then 95° C. for 30 sec, 60° C. for 60 sec (25-45 cycles), then an extension at 60° C. for 10 min.
Oligonucleotide primers and TaqMan 5′-6-FAM and 3′-TAMRA-labeled probes were synthesized in the RPCI Biopolymer Facility. Primer and probe sequences are listed under Sequence Listing and also in FIG. 9. Sequences were designed using standard software (PrimerExpress software, PE Biosystems) except for human GAPDH.
Realtime PCR reactions contained TaqMan Universal PCR Master Mix (PE Biosystems), primers at 300 nM, and probes at optimal concentrations (150-225 nM depending on gene). Reactions were carried out on an ABI PRISM 7700 Sequence Detection System (PE Biosystems). Cycling conditions were 50° C. for 2 min, 95° C. for 10 min, then 60 cycles of 95° C. for 15 sec, 60° C. for 1 min. PCR samples were run in triplicate. The detection system and quantitative PCR was carried out as described by Williamson et al. (1995, Genet Res. 65:83-93). The threshold cycle number CT corresponded to the cycle number, at which the fluorescent emission reaches 10 standard deviations above the mean fluorescent emission, measured during the early ‘baseline’ cycles of the PCR. The CT values for triplicates were averaged and normalized to GAPDH levels. […] Assuming reverse transcription efficiencies were approximately the same for each sample, relative amounts of mRNA using the comparative CT method. Fold changes in mRNA levels were calculated as 2^x where x=the difference between normalized CT values of the control and experimental samples.
To evaluate the effects of DAIs on human cells, the human trophoblast cell line was treated with 100 nM Trichostatin A (TSA), IFNγ (100 U/ml) or a combination of TSA and IFNγ for 12 hours. RNA was isolated and real time quantitative RT-PCR was carried out. The fold increase in mRNA over the control was calculated.

Where [6] appears, read: Colon 26 and J558, flow cytometry.

In the case of `CC(/C=C/C(=O)NO)=C\[C@@H](C)C(=O)c1ccc(N(C)C)cc1` [TSA, Trichostatin A], in assay [1], the “fold increase in expression of DR” value was 108 fold and the “levels of mRNA for HLA-DRα (DR)” value is “substantial increase”. The “cells positive for class II expression” value in assay [2] (TSA concentration used in FIG. 8 (50 nM for 48 hours)) is 29%. Also, the “expression of MHC class II protein on the cell surface” value in assay [2] was “significantly induced”. Further, in assay [3] (setting [6]), the “expression of CD40 on cell surface” value is recorded as “induced expression”. Also, the “MHC class I expression on cell surface” value in assay [4] (setting [6]) was “enhanced”. The “class I expression as a function of cell cycle phase” value in assay [4] (J558, double staining with PI and antibody to class I) is reported as “induced expression throughout the cell cycle”. In addition, the “fold increase in HLA-DRα (MHC class II) mRNA over the control” value in assay [5] is on record as 15 fold. In addition, the “levels of mRNA for DR” value in assay [5] (standard PCR, 100 nM or 250 nM TSA or 1 mM sodium butyrate) was “substantial increase”.
For “IFNγ: gamma-interferon, cytokine used as comparator at 100 U/ml”, in assay [1], the “fold increase in expression of DR” value is listed as “did not stimulate” and the “levels of mRNA for HLA-DRα (DR)” value is recorded as “cannot be induced”. In assay [2], the “expression of MHC class II protein on the cell surface” value was “did not induce”. The “mean channel fluorescence difference between control and IFNγ curves, CD40” value in assay [3] (J558, IFNγ 100 U/ml 24 hours, not seen on independent replicates) came to 1.3. The “MHC class I expression, response to IFNγ” value in assay [4] (J558, IFNγ 100 U/ml) was “unresponsive”. Moreover, in assay [5], the “fold increase in HLA-DRα (MHC class II) mRNA over the control” value is “did not induce”.
